Data from patent EP3390415B1, “(R)- AND (S)-1-(3-(3-N,N-DIMETHYLAMINOCARBONYL)PHENOXYL-4-NITROPHENYL)-1-ETHYL-N,N'-BIS (ETHYLENE)PHOSPHORAMIDATE, COMPOSITIONS AND METHODS FOR THEIR USE AND PREPARATION” (OBI PHARMA, INC., priority 2015, dated 2017).

Tests used:
[1] = Body weight and toxicity in the orthotopic liver cancer mouse model; format: in vivo, athymic nude mice; settings: mouse, in vivo
[2] = tested on: HepG2-GFP human hepatocellular carcinoma; assay: Orthotopic mouse model of human liver cancer, tumor burden; format: in vivo, athymic nude mice; settings: 30mg/kg, Qdx35, Gavages
Protocol: Female athymic nude mice (6 weeks of age) were used in this study. The animals were purchased from Beijing HFK Bioscience, Co., Ltd and maintained in a High Efficiency Particulate Air Filter (HEPA) filtered environment with cages, food, and bedding sterilized by irradiation or autoclaving. A total of 32 nude mice were used for the study. HepG2-GFP human hepatocellular carcinoma cells (AntiCancer, Inc., San Diego, CA) were incubated with RPMI-1640 (Gibco-BRL, Life Technologies, Inc.), which contained 10% FBS. Cells were grown in a CO2 Water Jacketed Incubator (Forma Scientific) maintaining 37°C and a 5% CO2/95% air atmosphere. Cell viability was determined by trypan blue exclusion analysis. Five female athymic nude mice were injected subcutaneously with a single dose of 5 x 10^6 HepG2-GFP cells. Tumors were harvested when their size reached 1cm^3 and the tumor tissues were then cut into small fragments of 1mm^3. Forty female nude mice were implanted orthotopically with a single piece of tumor fragment, which was derived from a subcutaneous tumor model of HepG2-GFP human hepatocellular carcinoma. The tumor tissue was orthotopically implanted in the right lobe of the liver in each mouse by SOI (Surgical Orthotopic Implantation). Briefly, an upper abdominal incision of 1cm was made under anesthesia. Right lobe of the liver was exposed and a part of the liver surface was injured mechanically by scissors. Then a piece of tumor fragment was fixed within the liver tissue, the liver was returned to the peritoneal cavity and the abdominal wall finally closed. Mice were kept in laminar-flow cabinets under specific pathogen-free-conditions.
Treatment was started three days after tumor implantation when the implanted tumors reached an average size of around 1 mm^2. The 32 tumor-bearing mice were randomly divided into four experimental groups of 8 mice each. Each cage was clearly marked for its group with four mice per cage. […] Table. Groups and treatment protocol
During the period of the study, all of the experimental mice were checked daily for mortality or signs of morbidity. […] The body weights of the mice were measured twice weekly during the study period. Images of tumor growth and progression were acquired twice a week during the period of the study with the FluorVivo imaging system, Model 300/Mag (INDEC, CA, USA). […] Livers were exposed for imaging, after which the tumors were removed and weighted with an electronic balance (Sartorius BS 124 S, Germany). Tumor tissues were kept in formalin for further analysis. Comparisons of body weights and tumor burdens in different groups were analyzed using the Student's t-test with an α = 0.05 (two-sided). After intravenously injection of the test agents, the mice had no lying, no autonomous activity reduction. The experimental animals were generally in good condition. Table. Comparison of mean mice body weight at the end of the study
The progressions of orthotopic HepG2-GFP hepatocellular carcinoma in different groups were monitored by real time imaging. Images were acquired twice a week. Typical tumor images at the end of the study in each group and tumor growth curves derived from the signals of tumor fluorescence, which were analyzed using the Power Station software (INDEC Biosystems, CA, USA), are shown in figure 6 and figure 7, respectively Table. Average tumor size in each group (mm2)

[3] = tested on: A375 melanoma human tumor xenograft; assay: In vivo human tumor xenograft model, antitumor activity; set-up: species or system nude mice; settings: 2.5mpk,qdx5x2,ip
Excerpt: Specific pathogen-free homozygous female nude mice (nu/nu, Charles River Laboratories) were used. Mice were given food and water ad libitum and housed in microisolator cages. Four to six week old animals were identified by microchips (Locus Technology, Manchester, MD, USA) at the time of the experiments. All animal studies were approved by the Institutional Animal Care and Use Committee at Threshold Pharmaceuticals, Inc.
All cell lines were from the American Type Culture Collection (ATCC, Rockville, MD, USA).
Cells were mixed with Matrigel (30% in H460) and 0.2 ml per mouse were subcutaneously implanted to the flank area of the animals. When tumor size reached 100-150 mm^3, mice were randomized into experimental or vehicle groups with 10 mice/group and treatment was started (Day 1). The tested compounds were formulated in 5% DMSO in D5W. All compounds were given by IP, QDx5/wk (5 days on, 2 days off) as one cycle, for a total of 2 cycles. Tumor growth and body weight were measured twice a week. Tumor volume was calculated as (length x width^2)/2. Drug efficacy was assessed as Tumor Growth Inhibition (TGI) and Tumor Growth Delay (TGD). TGI was defined as (1-ΔT/ΔC) x 100, where ΔT/ΔC presented the ratio of the change in mean (or median, if variation within the group was relatively large) tumor volume of the treated group and of the control group. TGD was calculated as the extra days for the treated tumor to reach 500mm^3 as compared to the control group. Animals were culled when individual tumor size reached over 2000mm^3 or mean tumor volume exceeded 1000mm^3 in the group. Data are expressed as the mean ± SEM. One-way analysis of variance with Dunnett post comparison test (GraphPad Prism 4) or two-tailed student's t-test were used for analysis. A P level < 0.05 was considered statistically significant.
This study employed an A375 melanoma human tumor xenograft model and the compounds provided herein were compared to thiotepa and the approved anti melanoma drug, Abraxane. […] Mpk refers to mg/kg.

Compound | toxicity to the experimental mice [1] | Tumor weight (g) (mean ± sd) [2] | Tumor area (mm^2) (mean ± sd) ([2]; fluorescence imaging) | tumor inhibition rate IR(%) ([2]; from final average tumor weights) | Days to 500 mm^3 [3] [days] | Days to 1000 mm^3 [3] [days] | TGD500, Days (vs. vehicle) [3] [days] | TGD1000, Days (vs. vehicle) [3] [days] | TGI [3] [%]
CNC(=O)c1cc(Oc2ccc(NC(=O)Nc3ccc(Cl)c(C(F)(F)F)c3)cc2)ccn1 [Sorafenib, reference compound] | a certain degree of toxicity | 0.0637 ± 0.0389 | 8.2 ± 5.3 | 58.7 | – | – | – | – | –
S=P(N1CC1)(N1CC1)N1CC1 [Thio-TEPA, thiotepa] | – | – | – | – | 18 | 27 | 3 | 2 | 16.6
